Earlier results on 3 compounds are cited in patent US11400105B2, “Anti-inflammatory properties of marine lipid compositions” (AKER BIOMARINE ANTARCTIC AS, priority 2006, dated 2022).

The conditions of data set [1]: ethyl esters (4 g/d); ref [12].
The subject of the next data set is pre-term infants. The conditions noted are these: for absorption: ref [8].

SMILES strings stand for the structures.

As for `CCC=CCC=CCC=CCC=CCC=CCCCC(=O)O` [EPA, 5,8,11,14,17-eicosapentaenoic acid], in data set [1], the “relative absorption based on the area under the concentration curve” value was 91% and the “relative absorption compared to oleic acid calculated from peak concentrations” value is on record as 94%.

Turning to `CCCCCC=CCC=CCC=CCC=CCCCC(=O)O` [AA, 5,8,11,14-eicosatetraenoic acid], in the data set with pre-term infants, the absorption is listed as 75%.

Consider `CC/C=C\C/C=C\C/C=C\C/C=C\C/C=C\C/C=C\CCC(=O)O` [DHA, 4,7,10,13,16,19-docosahexanoic acid], for which, in the data set with pre-term infants (ref [7]), the “absorption of DHA from egg lecithin” value is 90% and the “absorption of DHA from triglycerides” value is recorded as 80%. Also, the absorption with pre-term infants is listed as 62%. In data set [1], the “relative absorption based on the area under the concentration curve” value is 93% and the “relative absorption compared to oleic acid calculated from peak concentrations” value was 100%.
